Columns and labels:
dopamine [1] = assay: Apomorphine antagonism in rats (inhibition of apomorphine-induced agitation and stereotypy); type: in vivo; details: Rattus norvegicus, read-out: ED50 for inhibition of apomorphine-induced symptoms
Source text: Apomorphine Antagonism in Rats
The test procedure is described in Arch. Int. Pharmacodyn. […] In Table 1 are listed the ED50 values (mg/kg) for inhibition of apomorphine-induced symptoms obtained with compound (1) and the subsequent apomorphine challenge at different intervals (time).

dopamine [2] = assay: Apomorphine antagonism in dogs (absence of apomorphine-induced emesis); type: in vivo, dog; details: Canis lupus familiaris
Procedure: Apomorphine Antagonism in Dogs
This test is described in Psychopharmacol. 78, 210-213 (1982) and provides--besides a measure of the potency--a good measure of the duration of action of the tested compounds as dopamine antagonists. Apomorphine (0.31 mg/kg, sc; 4 times the ED95) induced emesis in all control dogs. At different time intervals before the apomorphine challenge, the dogs were pretreated with different doses (iv, sc or po) of the test compound (1). Complete absence of emesis for 1 hour after the challenge was adopted as the criterion for apomorphine antagonism in dogs. Listed are the ED50 values (mg/kg) obtained with compound (1) at different intervals after iv, sc or po administration.

dopamine [3] = assay: Amphetamine antagonism in rats (agitation and oxygen hyperconsumption); type: in vivo; details: Rattus norvegicus, 0.75 h, compound sc, after 45 min amphetamine 2.5 mg/kg sc
Procedure: Amphetamine Antagonism in Rats
This test procedure is described in Industrial Pharmacology, Part II, Antidepressants, eds, S. Fielding and H. Lal, p. 125-141, Futura Publishing Company (1975). Solvent (controls) or the test compound (1) were injected sc, followed after 45 min by amphetamine (2.5 mg/kg, sc). Starting 15 min after the amphetamine injection, agitation and consumption of oxygen were evaluated every 15 min over a period of 1 hour. Agitation was scored 3 (pronounced), 2 (moderate), 1 (slight) and 0 (absent), the total score maximally being 4×3=12. Oxygen consumption was measured on a mercury manometer simultaneously. Significant inhibition required a total score for agitation of less than 11 (0.3% in controls) or a final scale reading for oxygen consumption of less than 105 Hg units (1.8% in controls; mean=118 units). Blockade of amphetamine-induced agitation was considered complete at a total score of less than 4 and that of oxygen consumption at a scale reading of less than 90 Hg units (i.e. the agitation score and oxygen consumption level of normal rats which is never observed in amphetamine-treated controls). Listed are the ED50 values (mg/kg) obtained with compound (1) and the subsequent amphetamine challenge.

Compound: Cc1nc2c(C)cccn2c(=O)c1CCN1CCC(c2noc3cc(F)ccc23)CC1 [Compound 1, 3-[2-[4-(6-fluoro-1,2-benzisoxazol-3-yl)-1-piperidinyl]ethyl]-2,9-dimethyl-4H-pyrido[1,2-a]-pyrimidin-4-one]
- ED50 (dopamine [1]; Time 0.5 between compound and apomorphine challenge (1.25 mg/kg iv)): 21 µg/kg
- ED50 (dopamine [1]; Time 1 between compound and apomorphine challenge (1.25 mg/kg iv)): 18 µg/kg
- ED50 (dopamine [1]; Time 2 between compound and apomorphine challenge (1.25 mg/kg iv)): 32 µg/kg
- ED50 (dopamine [1]; Time 4 between compound and apomorphine challenge (1.25 mg/kg iv)): 68 µg/kg
- ED50 (dopamine [1]; Time 8 between compound and apomorphine challenge (1.25 mg/kg iv)): 290 µg/kg
- ED50 (dopamine [2]; iv, 0.5 h before apomorphine 0.31 mg/kg sc, read-out: ED50 (iv)): 1.2 µg/kg
- ED50 (dopamine [2]; iv, 1 h before apomorphine 0.31 mg/kg sc, read-out: ED50 (iv)): 1.1 µg/kg
- ED50 (dopamine [2]; iv, 2 h before apomorphine 0.31 mg/kg sc, read-out: ED50 (iv)): 1.2 µg/kg
- ED50 (dopamine [2]; iv, 4 h before apomorphine 0.31 mg/kg sc, read-out: ED50 (iv)): 0.79 µg/kg
- ED50 (dopamine [2]; iv, 8 h before apomorphine 0.31 mg/kg sc, read-out: ED50 (iv)): 0.89 µg/kg
- ED50 (dopamine [2]; iv, 16 h before apomorphine 0.31 mg/kg sc, read-out: ED50 (iv)): 1.2 µg/kg
- ED50 (dopamine [2]; iv, 32 h before apomorphine 0.31 mg/kg sc, read-out: ED50 (iv)): 2.9 µg/kg
- ED50 (dopamine [2]; po, 0.5 h before apomorphine 0.31 mg/kg sc, read-out: ED50 (po)): 5 µg/kg
- ED50 (dopamine [2]; po, 1 h before apomorphine 0.31 mg/kg sc, read-out: ED50 (po)): 1.5 µg/kg
- ED50 (dopamine [2]; po, 2 h before apomorphine 0.31 mg/kg sc, read-out: ED50 (po)): 0.89 µg/kg
- ED50 (dopamine [2]; po, 4 h before apomorphine 0.31 mg/kg sc, read-out: ED50 (po)): 1.2 µg/kg
- ED50 (dopamine [2]; po, 8 h before apomorphine 0.31 mg/kg sc, read-out: ED50 (po)): 0.99 µg/kg
- ED50 (dopamine [2]; po, 16 h before apomorphine 0.31 mg/kg sc, read-out: ED50 (po)): 2.4 µg/kg
- ED50 (dopamine [2]; po, 32 h before apomorphine 0.31 mg/kg sc, read-out: ED50 (po)): 6.3 µg/kg
- ED50 (dopamine [2]; sc, 0.5 h before apomorphine 0.31 mg/kg sc, read-out: ED50 (sc)): 4.5 µg/kg
- ED50 (dopamine [2]; sc, 1 h before apomorphine 0.31 mg/kg sc, read-out: ED50 (sc)): 2.4 µg/kg
- ED50 (dopamine [2]; sc, 2 h before apomorphine 0.31 mg/kg sc, read-out: ED50 (sc)): 1.4 µg/kg
- ED50 (dopamine [2]; sc, 4 h before apomorphine 0.31 mg/kg sc, read-out: ED50 (sc)): 0.89 µg/kg
- ED50 (dopamine [2]; sc, 8 h before apomorphine 0.31 mg/kg sc, read-out: ED50 (sc)): 1.2 µg/kg
- ED50 (dopamine [2]; sc, 16 h before apomorphine 0.31 mg/kg sc, read-out: ED50 (sc)): 2.2 µg/kg
- ED50 (dopamine [2]; sc, 32 h before apomorphine 0.31 mg/kg sc, read-out: ED50 (sc)): 4.5 µg/kg
- ED50 (dopamine [3]; blockade: agitation score <4, read-out: ED50, blockade of amphetamine-induced agitation): 64 µg/kg
- ED50 (dopamine [3]; blockade: scale reading <90 Hg units, read-out: ED50, blockade of oxygen hyperconsumption): 190 µg/kg
- ED50 (dopamine [3]; inhibition: agitation score <11, read-out: ED50, inhibition of amphetamine-induced agitation): 14 µg/kg
- ED50 (dopamine [3]; inhibition: scale reading <105 Hg units, read-out: ED50, inhibition of oxygen hyperconsumption): 57 µg/kg

— US5482943A, “(6-fluoro-1,2-benzisoxazol-3-yl)-1-piperidinyl-alkyl-(2, 9-disubstituted-4H-pyrido[1,2-a]pyrimidin-4-one) derivatives” (Janssen Pharmaceutica N.V., priority 1990, dated 1996)
